“Also recorded” adds a separate entry of the source.
Experiments:
[1] = tested on: human kidney transplant recipients; test: Same trial: safety, adverse events, laboratory values, withdrawals; assay type: in vivo; conditions: for Median serum creatine value: at study end; for Mean hemoglobin level: day 84
Procedure: FK778 and placebo were administered in a double-blind manner. […] Patients in arm 2 received one dose of 600 mg/day and continued on 75 mg/day. Subsequent doses were adjusted to maintain trough levels of FK778 in the range of 100-200 μg/mL (arm 1) and 10-100 μg/mL (arm 2). Trough levels of FK778 were centrally determined. Doses of FK778 were adjusted according to the recommendations of an independent panel. Treatment of adults of both genders was studied in a multi-center, randomized, double-blind trial. Three groups were studied. Group H was treated with high dose FK778/tarcolimus/steroids; Group L was treated with low dose FK778/tarcolimus/steroids; and Group P was treated with placebo/Tacrolimus/steroids. Tacrolimus was given as an initial dose of 0.2 mg/kg per os divided into two equal doses, one pre-operatively and one post-operatively. Subsequent doses were adjusted to reach target Tacrolimus whole blood trough concentrations of 10-20 ng/mL on Days 0-30, and 5-15 ng/mL on Days 31-84. Methylprednisolone was perioperatively administered at 1000 mg i.v. or less and 125 mg on Day 1. A prednisolone equivalent was given orally at 20 mg from Day 2-14, at 15 mg on Day 15-28, at 10 mg from Day 29-42 and 5 mg from Day 43-84. Oral tablets of FK778/placebo were administered in a double-blind manner. […] This was the maximum permitted daily dose of FK778. […] Dose adaptations were to be performed from day 7 onwards. Subsequent doses were adjusted to maintain plasma trough levels of FK778 in the target ranges of 100-200 μg/mL (H) and 10-100 μg/mL (L). The primary efficacy endpoint was the incidence of AR proven by local biopsy over the first 12 weeks. […] On a continuous basis safety was assessed by patient and graft survival, adverse event monitoring, routine laboratory evaluations and vital signs. Treatment emergent adverse events were coded according to the MedDRA dictionary (version 5.0). All analyses were based on the full analysis set which included all patients randomised who received at least one dose of FK778/placebo (intent-to-treat principle). Decreasing Kaplan-Meier plots were provided. Pair-wise comparisons of the incidence of adverse events between the treatment groups were made using Fisher's exact test.

[2] = Same trial: FK778 plasma trough levels; assay type: in vivo, human
Procedure: Patients in group H received loading doses of 600 mg/day on Day 1 and 2 and continued on 150 mg/day. This was the maximum permitted daily dose of FK778. Patients in group L received 600 mg/day only on Day 1 and continued on 75 mg/day. Dose adaptations were to be performed from day 7 onwards. Subsequent doses were adjusted to maintain plasma trough levels of FK778 in the target ranges of 100-200 μg/mL (H) and 10-100 μg/mL (L).
The assay of FK778 trough concentrations were centrally performed in an independent laboratory and an independent unblinded pharmacokinetic (PK)-panel (Covance, UK) used the plasma FK778 levels to make dose adjustments when necessary. In addition, dummy adjustments in the placebo arm were performed. Concentrations were determined initially every other day, from day 14-42 weekly, and afterwards every other week.

[3] = tested on: rat cardiac allografts; conditions: rats, cited from earlier work
[4] = tested on: chronic kidney allograft rejection; conditions: cited from earlier work
[5] = tested on: B-cell proliferation; T cells; conditions: in vitro, FK778 in combination with Tacrolimus (FK506); cited from earlier work
[6] = tested on: renal allograft; conditions: rats, concomitant 14-day regimen FK778 (10/mg/kg/day) and Tacrolimus (1 mg/k/day); cited from earlier work

**Q.** Which “Overall assessment of the trial” value ([1]; FK778 with Tacrolimus and corticosteroids, renal transplantation) does the source give for `C#CCC/C(O)=C(\C#N)C(=O)Nc1ccc(C(F)(F)F)cc1` [FK778, (2Z)-2-cyano-3-hydroxy-N-[4-(trifluromethyl)phenyl]-2-hepten-6-ynamide] here?
**A.** The value was “pharmacologically active, well tolerated, and safe; also recorded: pharmacologically active, well tolerated and safe”.

**Q.** What about the “Anemias NEC, number of patients” value ([1]; High level FK778 (group H)) of the same compound?
**A.** Its value is 21.

**Q.** What about the “Angina pectoris, number of patients” value ([1]; High level FK778 (group H)) of the same compound?
**A.** The value was 1.

**Q.** And the “Hyperkalemia (%)” value ([1]; High level FK778 (group H))?
**A.** The value was “(4.1) %”.

**Q.** And the “Hyperkalemia, number of patients” value ([1]; High level FK778 (group H))?
**A.** The value was 2.

**Q.** And the “Hypokalemia (%)” value ([1]; High level FK778 (group H))?
**A.** The value was “(12.2) %”.

**Q.** What about the “Hypokalemia, number of patients” value ([1]; High level FK778 (group H)) of the same compound?
**A.** The value was 6.

**Q.** And the “Ischemic coronary artery disorders (%)” value ([1]; High level FK778 (group H))?
**A.** Its value is “(4.1) %”.

**Q.** What about the “Ischemic coronary artery disorders, number of patients” value ([1]; High level FK778 (group H)) of the same compound?
**A.** The value was 2.

**Q.** And the “Myocard. Ischemia, number of patients” value ([1]; High level FK778 (group H))?
**A.** Its value is 1.

**Q.** And the “O. NOS, number of patients” value ([1]; High level FK778 (group H))?
**A.** Its value is 1.

**Q.** And the “O. hemorrhagic, number of patients” value ([1]; High level FK778 (group H))?
**A.** Its value is 1.

**Q.** And the “Oesophagilis (%)” value ([1]; High level FK778 (group H))?
**A.** Its value is “(8.2) %”.

**Q.** What about the “Oesophagilis, number of patients” value ([1]; High level FK778 (group H)) of the same compound?
**A.** Its value is 4.

**Q.** What about the “Reflux O., number of patients” value ([1]; High level FK778 (group H)) of the same compound?
**A.** The value was 2.

**Q.** What about the “Withdrawn: Adverse event (%)” value ([1]; High level FK778 (group H)) of the same compound?
**A.** The value was “(18.4) %”.

**Q.** And the “Withdrawn: Adverse event, number of patients” value ([1]; High level FK778 (group H))?
**A.** Its value is 9.

**Q.** And the “Withdrawn: Death (%)” value ([1]; High level FK778 (group H))?
**A.** The value was “(2.0) %”.

**Q.** And the “Withdrawn: Death, number of patients” value ([1]; High level FK778 (group H))?
**A.** Its value is 1.

**Q.** And the “Withdrawn: Graft failure (%)” value ([1]; High level FK778 (group H))?
**A.** The value was “(6.1) %”.

**Q.** What about the “Withdrawn: Graft failure, number of patients” value ([1]; High level FK778 (group H)) of the same compound?
**A.** The value was 3.

**Q.** And the “Withdrawn from treatment (%)” value ([1]; High level FK778 (group H) + Tacrolimus/steroids)?
**A.** Its value is “(28.6) %”.

**Q.** What about the “Withdrawn from treatment, number of patients” value ([1]; High level FK778 (group H) + Tacrolimus/steroids, N=49) of the same compound?
**A.** Its value is 14.

**Q.** And the “Anemias NEC, number of patients” value ([1]; Low level FK778 (group L))?
**A.** Its value is 17.

**Q.** What about the “Angina pectoris, number of patients” value ([1]; Low level FK778 (group L)) of the same compound?
**A.** The value was 5.

**Q.** And the “Hyperkalemia (%)” value ([1]; Low level FK778 (group L))?
**A.** Its value is “(11.1) %”.

**Q.** What about the “Hyperkalemia, number of patients” value ([1]; Low level FK778 (group L)) of the same compound?
**A.** Its value is 6.

**Q.** What about the “Hypokalemia (%)” value ([1]; Low level FK778 (group L)) of the same compound?
**A.** Its value is “(0.0) %”.

**Q.** What about the “Hypokalemia, number of patients” value ([1]; Low level FK778 (group L)) of the same compound?
**A.** The value was 0.

**Q.** And the “Ischemic coronary artery disorders (%)” value ([1]; Low level FK778 (group L))?
**A.** The value was “(13.0) %”.

**Q.** What about the “Ischemic coronary artery disorders, number of patients” value ([1]; Low level FK778 (group L)) of the same compound?
**A.** Its value is 7.

**Q.** What about the “Myocard. Infarction, number of patients” value ([1]; Low level FK778 (group L)) of the same compound?
**A.** The value was 1.

**Q.** And the “Myocard. Ischemia, number of patients” value ([1]; Low level FK778 (group L))?
**A.** The value was 1.

**Q.** And the “Oesophagilis (%)” value ([1]; Low level FK778 (group L))?
**A.** The value was “(0.0) %”.

**Q.** What about the “Oesophagilis, number of patients” value ([1]; Low level FK778 (group L)) of the same compound?
**A.** The value was 0.

**Q.** And the “Withdrawn: Adverse event (%)” value ([1]; Low level FK778 (group L))?
**A.** Its value is “(13.0) %”.

**Q.** And the “Withdrawn: Adverse event, number of patients” value ([1]; Low level FK778 (group L))?
**A.** The value was 7.

**Q.** And the “Withdrawn: Graft failure (%)” value ([1]; Low level FK778 (group L))?
**A.** Its value is “(5.6) %”.

**Q.** And the “Withdrawn: Graft failure, number of patients” value ([1]; Low level FK778 (group L))?
**A.** The value was 3.

**Q.** What about the “Withdrawn from treatment (%)” value ([1]; Low level FK778 (group L) + Tacrolimus/steroids) of the same compound?
**A.** The value was “(25.9) %”.

**Q.** And the “Withdrawn from treatment, number of patients” value ([1]; Low level FK778 (group L) + Tacrolimus/steroids, N=54)?
**A.** Its value is 14.

**Q.** And the “Withdrawn: Death, number of patients” value ([1]; Low level FK778 (group L), one patient died the day after withdrawal)?
**A.** Its value is 0.

**Q.** And the Reversibility of anemia ([1]; after cessation of FK778 treatment)?
**A.** Its Reversibility of anemia is “reversible after cessation of FK778 treatment; also recorded: quickly reversed after cessation of FK778 treatment”.

**Q.** What about the “Systolic and diastolic blood pressure values” ([1]; both FK778 arms) of the same compound?
**A.** Its value is “trend towards lower”.

**Q.** What about the “Mean total cholesterol and mean LDL-cholesterol levels, lower compared to placebo group” value ([1]; both FK778 groups, during the treatment phase) of the same compound?
**A.** The value was about 20%.

**Q.** What about the Bilirubin levels ([1]; group H) of the same compound?
**A.** The Bilirubin levels was “slightly elevated”.

**Q.** And the “Median serum creatine value” ([1]; group H)?
**A.** Its value is 138 µmol/L.

**Q.** What about the Mean hemoglobin level ([1]; group H) of the same compound?
**A.** The Mean hemoglobin level was 102.6 g/L.

**Q.** What about the “Patients who died during the study” value ([1]; group H, high level FK778) of the same compound?
**A.** The value was “one”.

**Q.** And the “Median serum creatine value” ([1]; group L)?
**A.** Its value is 149 µmol/L.

**Q.** What about the Mean hemoglobin level ([1]; group L) of the same compound?
**A.** Its Mean hemoglobin level is 119 g/L.

**Q.** What about the “Patients who died during the study” value ([1]; group L, low level FK778) of the same compound?
**A.** Its value is “one”.

**Q.** What about the Liver enzyme values ([1]; throughout the study) of the same compound?
**A.** Its Liver enzyme values is “no changes”.

**Q.** And the “Maximum FK778 plasma trough level” value ([2]; group H, Day 3)?
**A.** The value was 142.4 µg/mL.

**Q.** What about the “Median FK778 plasma trough level” value ([2]; group H, Day 3) of the same compound?
**A.** Its value is 84.34 µg/mL.

**Q.** What about the “Mean FK778 plasma trough level” value ([2]; group H, Day 3, after loading doses 600 mg/day on Day 1 and 2) of the same compound?
**A.** The value was 86.97 ± 26.23 µg/mL.

**Q.** And the “Mean FK778 plasma trough level” value ([2]; group H, Day 7)?
**A.** Its value is 93.58 µg/mL.

**Q.** What about the “Mean FK778 plasma trough level” value ([2]; group H, Day 28) of the same compound?
**A.** The value was 175.66 µg/mL.

**Q.** What about the “Median FK778 plasma trough level” value ([2]; group L, Day 2) of the same compound?
**A.** The value was 41.35 µg/mL.

**Q.** And the “Mean FK778 plasma trough level” value ([2]; group L, Day 2, after loading dose 600 mg/day on Day 1)?
**A.** The value was 38.30 ± 21.14 µg/mL.

**Q.** And the “Mean FK778 plasma trough level” value ([2]; group L, Day 11)?
**A.** Its value is 31.53 ± 21.26 µg/mL.

**Q.** What about the “Median FK778 plasma trough level” value ([2]; group L, Day 11) of the same compound?
**A.** Its value is 28.35 µg/mL.

**Q.** And the “Mean FK778 plasma trough level” value ([2]; group L, Day 42)?
**A.** Its value is 62.36 ± 27.60 µg/mL.

**Q.** And the “Median FK778 plasma trough level” value ([2]; group L, Day 42)?
**A.** Its value is 59.36 µg/mL.

**Q.** What about the “Prolongation of graft survival” value ([3]; 20 mg/kg for ten days) of the same compound?
**A.** The value was “about two”.

**Q.** What about the Median graft survival ([3]; MNA 715 (20/mg/kg) combined with Tacrolimus (2.4 mg/kg) for ten days) of the same compound?
**A.** Its Median graft survival is 19 days.

**Q.** And the Optimal dose ([4]; rat, given for ten days following transplantation)?
**A.** Its Optimal dose is 10 mg/kg/day.

**Q.** And the “Effect on chronic kidney allograft rejection” value ([4]; rats)?
**A.** Its value is “prevented chronic kidney allograft rejection; also recorded: reduced functional and histologic chronic kidney allograft rejection”.

**Q.** What about the “Effect in T cells” value [5] of the same compound?
**A.** The value was “antagonistic tendency”.

**Q.** And the “Effect on B-cell proliferation” value [5]?
**A.** The value was “synergistic inhibition of B-cell proliferation”.

**Q.** What about the “Effect on renal allograft survival” value [6] of the same compound?
**A.** The value was “synergistically prolonged renal allograft survival”.
